Data on one molecule can be found in patent publication US10653672B2, “Myogenesis promotor, muscle atrophy inhibitor, medical composition and TAZ activator” (National University Corporation Tokyo Medical and Dental …, priority 2014, dated 2020).

Series [1] relates to binding of MyoD to myogenin promoter. The experiment in a line: Chromatin immunoprecipitation, MyoD on myogenin promoter. Format: cell-based, mouse. The settings on record: C2C12 cells; 10 μM; differentiation condition 24 hours; protein G sepharose without antibody; listed as IBS008738. The protocol: (1) Chromatin immunoprecipitation of MyoD, TEAD and Pax3 was performed on C2C12 cells that were cultured under differentiation condition for 24 hours in a culture medium added with IBS008738 or DMSO at a concentration of 10 μM. Myogenin, connective tissue growth factor (CTGF) and MyfS were detected by PCR, respectively. The immunoprecipitation with protein G sepharose was used as a control (Mock ChIP). […] The line and the error bar in the figure indicate the average value and the standard error, *p<0.05, ***p<0.001, ns refers to not significant.
The Chromatin immunoprecipitation was performed according to the following process. C2C12 cells were cultured to confluence, and then treated with IBS008738 or DMSO at a concentration of 10 μM in a differentiation medium for 24 hours. The cells were crosslinked in 1.42% (v/v) formaldehyde for 15 minutes, and the reaction was quenched by treating with 125 mM glycine for 5 minutes. […] Shearing was analyzed by agarose gel electrophoresis. […] The immunoprecipitated DNA fragments were isolated using Chelex-100 resin and diluted by 1:2.5 for quantitative PCR analysis. Input normalized relative abundance was determined.

The test system of the next series is MyoD reporter. Description: Luciferase reporter assay, MyoD reporter. In kind it is cell-based. The settings on record: Mus musculus, C2C12, 24 h, C2C12 cells expressing reporter and TAZ WT, differentiation medium 24 hours. The protocol: (§1) The effect and its degree on the activity of a reporter, derived from a transcription factor that interacts with TAZ in C2C12 cells, were evaluated. Specifically, C2C12 cells expressing luciferase reporters corresponding to MyoD, TEAD, SMAD and Pax3 and C2C12 cells expressing these luciferase reporters and TAZ were cultured in a culture medium added with IBS008738 or DMSO at a concentration of 10 μM, respectively. […] The line and the error bar indicate the average value and the standard error, *p<0.05, **p<0.01, ns refers to not significant.
(§2) Transfection of the luciferase reporters was performed to the C2C12 cells after being plated at 12-well plates (1×10^5 cells/well) and cultured overnight. As the luciferase reporters, pGL3 Myo-184- (MyoD-), 8×GT-IIC-δ51LucII- (TEAD-), 9×CAGA-MLP-(SMAD-), and p(PRS-1/-4)3- (Pax3-) were transfected to the cells alone or with TAZ. These reporter vectors were from Keiji Miyazawa (Yamanashi University), Hiroshi Sasaki (Kumamoto University) and Hiroki Kurihara (The University of Tokyo).
(§3) Immediately after the transfection, DMSO or IBS008738 was added at a concentration of 10 μM, respectively. After growing the cells to confluence, the cells were transferred to a differentiation medium with DMSO or IBS008738, and cultured for 24 hours before the luciferase assay.
For orientation: Reporter assays use an easily measured gene product as a stand-in for the process of interest.

The next series has as its system calpain 1. Description: Quantitative real-time PCR, calpain 1. The settings on record: C2C12 cells, 10 μM; for Normarized mRNA abundance, Calpain1: listed as IBS008738. In kind it is cell-based, mouse. The protocol: (§4) (1) Quantitative real-time PCR was performed with C2C12 cells immediately before the induction of muscle formation (0 h), and after culturing under differentiation condition in a culture medium added with IBS008738 or DMSO at a concentration of 10 μM for 24 hours (24 h) and 72 hours (72 h), respectively. […] The line and error bar indicate the average value and the standard error, **p<0.05, and ns refers to not significant.
Evaluation was also performed under the same condition on M-cadherin, calpain 1 and caveolin 3, which are myofusion markers. As a result, there was no increase in the degree of gene transcription in the case with IBS008738.
(§5) The quantitative real-time PCR was performed with SYBER Green (Roche) and ABI7500 Realtime PCR system (Applied Biosystems).

The test system of a further series is Pax3 reporter. The experiment in a line: Luciferase reporter assay, Pax3 reporter. Format: cell-based. The conditions noted are these: Mus musculus, C2C12, 24 h, C2C12 cells expressing reporter and TAZ WT, differentiation medium 24 hours. As for the experimental part: as §1, §2, §3
Another series deals with A549 cells. Description: Immunoblotting of EMT markers in A549 cells. In kind it is cell-based, human. The protocol: (1) A431 cells, (epidermoid carcinoma), A549 cells (adenocarcinomic human alveolar basal epithelial cell) and HCT116 cells (human colon cancer) were treated with IBS008738 or DMSO, respectively, and evaluated by immunoblotting.
HEK293, A431, A549, HCT116, MCF7 and SW480 cells were cultured in Dulbecco's Modified Eagle Medium (DMEM) containing 10% fetal bovine serum (FBS), 10 mM HEPES-NaOH at pH 7.4, 100 U/ml penicillin and 100 mg/I streptomycin under 5% CO2 at 37° C.
Background: Immunoblotting shows a protein as a band on a membrane.

The next series relates to TAZ. The experiment in a line: Quantitative real-time PCR, TAZ. Format: cell-based, mouse. The conditions noted are these: C2C12 cells, 10 μM; for Normarized mRNA abundance, TAZ: listed as IBS008738. As for the experimental part: as §4, §5
(In general: Quantitative PCR measures a nucleic acid by following its amplification.)

In a further series the test system is Balb/c ByJ mice. Description: Suppression of dexamethasone-induced muscle atrophy. Format: in vivo, mouse. The protocol: (1) A 25 mg/mL dexamethasone stock solution in DMSO was prepared. Three Balb/c ByJ mice (6 week, female) were intraperitoneally injected with 20 μL of the dexamethasone stock solution, each day for a week. As a control group, three other individuals were injected with 20 μL of DMSO. On day 9, 11 and 13, each group of the mice was injected with a solution prepared by dissolving 0.3 μL of 10 mM IBS008738 stock solution in 100 μL PBS, on one hindlimb muscle, and with 100 μL PBS on the other hindlimb muscle. The mice were sacrificed at day 14, and the muscle tissues were fixed and stained with hematoxylin and eosin (see FIG. 8D). It was observed that the muscle fibers of the mice administered with dexamethasone were shrinked.
(2) The cross section of the muscle fibers of the individual intraperitoneally injected with dexamethasone was stained with an anti-laminin antibody and observed. […] The cross-section area of muscle fibers (500 per individual) of the three mice was measured. As a result, the area of the individual injected with IBS008738 was greater than the area of the individual injected with DMSO (see FIG. 9F). The cross-section area of muscle fibers was analyzed with Image J software.

Series [2] concerns connective tissue growth factor (CTGF). Description: Quantitative real-time PCR, CTGF. The conditions noted are these: C2C12 cells, 10 μM; for Normarized mRNA abundance, CTGF: listed as IBS008738. Format: cell-based, mouse. As for the experimental part:
as §4
(2) Evaluation was also performed under the same condition on the connective tissue growth factor (CTGF) and cyclin D1, as TAZ targets in epidermal cells.
as §5

Where “and” joins values, the source holds several entries; their conditions need not be identical. Identical values can stand only once.

Usually fold induction stands for the ratio of treated to control signal. With `Cc1ccc(-n2cnc(/N=C/N3CCOCC3)c2C(=O)c2ccccc2)cc1` [exemplary compound 1], the “Input %, myogenin-p, Mock ChIP” value in series [1] was 0.05% and 0.08%. Moreover, the fold induction at 10 µM in the series with MyoD reporter stood at 6.92; with Pax3 reporter it was 0.8. For the same molecule, the “degree of gene transcription of calpain 1” value in the series on calpain 1 (24 h and 72 h) was “no increase”. The “Normarized mRNA abundance, Calpain1” value in the series with calpain 1 (differentiation condition 24 h) was 0.84 and 0.81 and 0.98; with calpain 1 (differentiation condition 72 h), 1.15 and 1.18 and 1.22. The “EMT markers (fibronectin, E-cadherin, N-cadherin and vimentin) compared with DMSO” value with A549 cells is “no significant difference”. Besides, in the series with TAZ (24 h and 72 h), the “expression of TAZ (gene transcription) compared with DMSO” value is given as “did not change”. Moreover, the “Normarized mRNA abundance, TAZ” value is 0.88 and 0.94 in the series with TAZ (differentiation condition 24 h); 1.44 and 1.36 and 1.41 with TAZ (differentiation condition 72 h). For the same molecule, in the series with Balb/c ByJ mice (dexamethasone mice, 500 fibers per individual, three mice), the “cross-section area of muscle fibers compared with DMSO” value was “greater”. Further, the “shrinkage of muscle fibers compared with DMSO” value in the series with Balb/c ByJ mice (dexamethasone mice, cross section stained with anti-laminin antibody) is listed as “more suppressed”. Also, in the series with Balb/c ByJ mice (mice intraperitoneally injected with DMSO (no dexamethasone), IBS008738 into hindlimb muscle on day 9, 11 and 13, hematoxylin and eosin), the “effect on muscle fibers” value is given as “No significant effect”. In the series on Balb/c ByJ mice (mice intraperitoneally injected with dexamethasone, IBS008738 into hindlimb muscle on day 9, 11 and 13, hematoxylin and eosin, day 14), the “shrinkage of muscle fibers” value is recorded as “partly suppressed”. In addition, the “gene transcription of CTGF compared with DMSO” value in series [2] (24 h and 72 h) was “no significant difference”. The “Normarized mRNA abundance, CTGF” value was 0.32 and 0.30 and 0.25 in series [2] (differentiation condition 24 h); 1.76 and 2.01 and 2.04 in series [2] (differentiation condition 72 h).
